Source: US20030208035A1, “Antifungal and/or antibacterial peptides, preparation methods, compositions containing same and methods of treating mammals and/or plants” (priority 2000, published 2003)
In brackets after ≈: the same amount, converted by molar mass. Read-outs that look alike come from different tables or passages of the source. Bridges are numbered along the chain shown (N, C = ends). Where no end group is shown, it is not given here.

Legend:
[1] = test system: fluconazole-resistant C. albicans; assay: microbe, parasite or virus in culture; assay type: cell-based, Candida albicans
Protocol: (§1) Candida yeasts (C. albicans, C. glabrata, C. dubliensis, C. tropicalis, C. kefyr, C. krusei and C. parapsilosis—donated by Dr. H. Koenig, Hôpital Civil, Strasbourg), fluconazole-resistant C. albicans (n^o245962, n^o2332, n^o246335 and n^o3552, donated by Drs. J.Meis and J. Mouton, University Hospital, Microbiology Department, Nijmegen, Netherlands), and Cryptoccocus neoformans (donated by Dr. H. Koenig, Hôpital Civil, Strasbourg) were seeded on Sabouraud-Cloramphenicol Agar slant gelose (Biomerieux) and left to incubate for 24 h at 30° C. (Candida sp.) and for 72 h at 37° C. (Cryptoccocus neoformans).
(§2) Some yeast colonies were placed in suspension in liquid Sabouraud medium (Biomerieux) to obtain a final concentration of 0.1 OD at 600 nm corresponding to 2.5.10^6 yeasts/ml.
(§3) The yeast suspension was adjusted to 5.10^3 yeast/ml in Sabouraud medium.
(§4) 100 μl of peptide dilutions (concentration of 50 with 0.097 μg/ml peptide) were deposited in microtitration plates. After adding […] of yeast suspension with 5.10^3 yeast/ml i.e. 500 yeasts, the test plates were incubated 24 h at 30° C. (Candida) under slow shaking or 72 h at 37° C. (Cryptoccocus).
(§5) Determination of minimal inhibiting concentrations (MIC) was made by measuring absorbency at 600 nm using a spectrophotometer-microtitration plate reader. The MIC score was set at a growth inhibition rate of 50%.

A. fumigatus = assay type: cell-based
Protocol: (§6) The antifungal activity was detected by a growth inhibition test in a liquid medium.
(§7) The filamentous fungi (A. fumigatus, A. flavus and A. terreus, donated by Dr. H. Koenig, Hôpital Civil, Strasbourg; and S. prolificans and F. solani donated by Drs. J. Meis and J. Mouton, University hospital, Microbioolgy Department, Nijmegen, Netherlands) were seeded on Malt-Agar slant gelose (Biomerieux) and incubated 7 days at 37° C.
(§8) The spores were then collected with 10 ml YPG medium containing 0.05% Tween 20 and filtered through a gauze. The spores were centrifuged 10 min at 1700 rpm, the residue was collected in YPG (1 g Yeast extract, 1 g Peptone, 3 g Glucose per 1 l).
(§9) The suspension was counted with a Coverslide and adjusted to 10^4 spores/ml.
(§10) 100 μl of peptide dilutions (concentration of 50 with 0.097 μg/ml peptide) were deposited in microtitration plates. 100 μl with 10^4 spores/ml of filamentous fungi, i.e. 1000 spores, were then added.
(§11) The test plates were incubated 48 h at 37° C.
(§12) Determination of minimum inhibiting concentrations (MIC) was made by observing well cover rate. The MIC score was set at 50% well covering.

F. solani = assay: Test to detect activity against filamentous fungi (MIC); assay type: cell-based; conditions: F. solani FFUS 8591
Protocol: as §6, §7, §8, §9, §10, §11, §12

S. prolificans = assay: as above; assay type: cell-based
Protocol: as §6, §7, §8, §9, §10, §11, §12

Neurospora crassa = assay type: cell-based; conditions: 48 h
Protocol: (§13) 100 μl of peptide dilutions (concentration 50 with 0.097 mg/ml peptide) were deposited in microtitration plates.
(§14) After adding 100 μl of frozen spores with 10^4 spores/ml of A. brassicola and N. crassa (donated by Dr. Bullet, IBMC, Strasbourg) the test plates were incubated 48 h at 30° C.
(§15) Determination of minimal inhibiting concentrations (MIC) was made by observing well cover rate. The MIC was set at 50% well covering.

Alternaria brassicola = assay type: cell-based; conditions: 48 h
Protocol: as §13, §14, §15

[2] = test system: Candida albicans (IHEM 8060 strain); assay: Candida albicans infected model, lethal in mice (disseminated candidiasis); assay type: in vivo
Protocol: Heliomycin and its analogues were tested for in vivo antifungal activity in a model infected with Candida albicans, lethal in mice. The pathogenic agent Candida albicans (IHEM 8060 strain) was inoculated by intravenous route (i.v.) at a dose of 2.5×10^6 CFU/mouse. the peptides were administered by i.v. route in 4 injections 6 h, 24 h, 48 h and 72 h after infection. Assessment criteria for activity were evaluation of survival and morbidity at 7 days. The morbidity scores, which take into account general state of health (condition of fur, mobility, hydration) were determined for each mouse with values ranging from 0 to 5 and defined below: 0=dead, 1=moribund, 2=very ill, 3=ill, 4=slightly ill, 5=healthy. The sum of the individual scores was calculated for each group, a score of 50 for a group of 10 mice meaning that all the mice were healthy.
Following a standard protocol, groups of 10 Swiss OF1 male mice weighing 12 g were infected via i.v. route with a dose of 2.5×10^6 CFU/mouse. Heliomycin and Ard1 were administered by i.v. route in 4 injections, 6 h, 24 h, 48 h and 72 h after infection. For each peptide, 2 doses were tested: 10 mg/kg and 30 mg/kg. A placebo group was injected with peptide solvent, 0.9% sodium chloride.
In this experiment, inoculation of the mice with 2.5.10^6 CFU/mouse was 50% lethal at day 5 in the group which received placebo treatment. The first deaths occurred on post-infection day 2.5 and median mortality occurred on post-infection day 5. On day 7, 5 mice were alive and the morbidity score 15/50.
In this experiment, inoculation of Swiss OF1 mice weighing 15 g with 3.10^6 CFU of Candida albicans induces 50% mortality on day 4 after infection in the group treated with the placebo. The first deaths occur 2.5 days after infection, and 100% of the mice were dead on day 5.5.
In this experiment, inoculation of the mice with 2.5.10^6 CFU/mouse was 50% lethal at day 5 and 100% at day 8 for mice in the placebo group. The first death occurred 3 days after infection. The morbidity score fell rapidly below 30/50 (25/50 at day 2.5).
The pEM35 peptide was administered at doses of 10 and 30 mg/kg/injection with 3 daily doses for 4 days (1 h, 5 h and 10 h post-infection on day 0; at 8 h, 14 h and 20 h on days 1, 2 and 3), i.e., daily doses totalling 30 and 90 mg/kg.

C. kefyr = assay type: cell-based
Protocol: as §1, §2, §3, §4, §5

C. krusei = assay type: cell-based
Protocol: as §1, §2, §3, §4, §5

C. glabrata = assay type: cell-based
Protocol: as §1, §2, §3, §4, §5

Aspergillus fumigatus = assay: anti-Aspergillus fumigatus growth inhibition test in liquid medium (96-well microplates); assay type: cell-based
Protocol: (§16) The anti-Candida albicans and anti-Aspergillus fumigatus activities of the different analogues were assessed using a growth inhibition test in liquid medium made in 96-well microplates. The activity of the purified peptides was tested for different dilutions of each peptide and was compared with those of heliomycin and Ard1 quantified under the same conditions.
The spores of Aspergillus fumigatus were derived from a stock frozen at −80° C., containing 10^7 spores/ml in a 25% glycerol solution. After slow thawing at room temperature, the spores were placed in suspension in PDB culture medium (12 g Potato Dextrose Broth medium, per […] water). 10 μl of each sample were deposited in the wells of microtitration plates in the presence of 90 μl PDB culture medium supplemented with tetracycline (100 μg/ml) and cefotaxime (1 μg/ml) containing the spores (at a final concentration of 1000 spores/well). Control cultures were systematically made in which 10 μl of sample were replaced by 10 μl of sterile water. Media sterility was controlled by incubating 10 μl sterile water in the presence of 90 μl of medium. The samples were incubated at 37° C. for 24 h to 48 h in a humid atmosphere, and the antifungal activity was quantified by a score of 0 to 9 taking germination account; the size and morphology of the hyphs were determined under the binocular microscope. […].

C. tropicalis = assay type: cell-based
Protocol: as §1, §2, §3, §4, §5

C. parapsilosis = assay type: cell-based
Protocol: as §1, §2, §3, §4, §5

Candida albicans = assay: anti-Candida albicans growth inhibition test in liquid medium (96-well microplates); assay type: cell-based; conditions: fold relative to Ard1
Protocol: as §16
The activity test was made directly on yeasts derived from a stock frozen at −80° C., in Sabouraud medium containing 15% glycerol. The density of the yeasts in the stock was adjusted to an optical density of 0.4 OD at 600 nm. After slow thawing at room temperature, the yeast suspension was reduced by dilution to an optic density of 1 mOD at 600 nm in Sabouraud medium, and 90 μl of this dilution were deposited in the wells of microtitration plates in the presence of 10 μl of sample to be tested. Control samples were systematically made in which 10 μl of sample were replaced by 10 μl of sterile water. Media sterility was controlled by incubating 10 μl sterile water in the presence of 90 μl of medium. The samples were incubated at 30° C. for 40 h under slight stirring and the antifungal activity was quantified by measuring optic density at 600 nm.

C. albicans = assay type: cell-based, Candida albicans; conditions: 24 h
Protocol: as §1, §2, §3, §4, §5

[3] = fluconazole-resistant C. albicans n° 2332
[4] = fluconazole-resistant C. albicans n° 245962
[5] = fluconazole-resistant C. albicans n° 246335
[6] = FIGS. 2-3, 10 mg/kg i.v., 4 injections

Q: What does the source list for C[C@@H]1[C@H](O)[C@@H](C)/C=C/C=C/C=C/C=C/C=C/C=C/C=C/[C@H](O[C@@H]2O[C@H](C)[C@@H](O)[C@H](N)[C@@H]2O)C[C@@H]2O[C@](O)(C[C@@H](O)C[C@@H](O)[C@H](O)CC[C@@H](O)C[C@@H](O)CC(=O)O[C@H]1C)C[C@H](O)[C@H]2C(=O)O [ampho B, Amphotericin B]?
A: MIC [1, 3]: 0.25 µg/mL (≈ 0.271 µM); MIC [1, 4]: 0.125 µg/mL (≈ 0.135 µM); MIC [1, 5]: 0.0625 µg/mL (≈ 0.0676 µM); MIC (A. fumigatus; A. fumigatus FASF 5161): 0.5 µg/mL (≈ 0.541 µM); MIC (F. solani): > 16 µg/mL; MIC (S. prolificans; S. prolificans FSSP 7902): > 16 µg/mL; MIC (S. prolificans; S. prolificans FSSP 7908): > 16 µg/mL

Q: Which results are given for OC(Cn1cncn1)(Cn1cncn1)c1ccc(F)cc1F [fluconazole]?
A: MIC ([1]; Candida albicans, fluconazole-resistant C. albicans n° 3552, read-out: MIC): > 64 µg/mL; MIC [1, 3]: > at 64 μg/ml; MIC [1, 4]: > at 64 μg/ml; MIC [1, 5]: > at 64 μg/ml

Q: How did the MIC (Neurospora crassa) turn out when “DKLIGSCVWGAVNYTSNCNAECKRRGYKGGHCGSFANVNCWCET (disulfide 7-32, 18-40, 22-42 (inferred)) [Ard1]” was run?
A: The MIC was 0.097 µg/mL.

Q: What about the MIC (Alternaria brassicola) of the same compound?
A: Its MIC is over 25 µg/mL.

Q: What about the “effect on survival and general condition of the mice” value [2, 6] of the same compound?
A: Its value is “did not make it possible to improve survival”.

Q: And the “time after infection at which 50% of mice were dead” value [2, 6]?
A: The value was 2 days.

Q: What about the “mice alive on day 7 (out of 10)” value ([2]; FIGS. 2-3, 30 mg/kg i.v., 4 injections) of the same compound?
A: The value was 5 mice.

Q: What about the “morbidity score at day 7” value ([2]; FIGS. 2-3, 30 mg/kg i.v., 4 injections, 50 = all 10 mice healthy) of the same compound?
A: Its value is 16/50.

Q: What about the “delay of onset of the first death” value ([2]; FIGS. 2-3, 30 mg/kg i.v., 4 injections, vs placebo) of the same compound?
A: Its value is 24 h.

Q: And the “mice alive on day 7 (out of 10)” value ([2]; FIGS. 4-5, 10 mg/kg, placebo 5 alive)?
A: The value was 8 mice.

Q: What about the “delay of onset of the first death” value ([2]; FIGS. 4-5, 2.5.10^6 CFU/mouse, 10 mg/kg, placebo first deaths day 2.5) of the same compound?
A: Its value is 36 h.

Q: What about the “effect on mouse survival relative to placebo treatment” value ([2]; FIGS. 6-7, 3.10^6 CFU, 5 mg/kg, three i.v. injections, 10 mice of 15 g) of the same compound?
A: The value was “does not significantly increase mouse survival”.

Q: What about the “effectiveness in the candidiasis infected model” value ([2]; FIGS. 6-7, dose 5 mg/kg) of the same compound?
A: Its value is “not effective”.

Q: And the MIC (C. kefyr)?
A: The MIC was over 25 µg/mL.

Q: What about the MIC (C. krusei) of the same compound?
A: Its MIC is 3.125 µg/mL.

Q: What about the MIC (C. glabrata) of the same compound?
A: Its MIC is over 25 µg/mL.

Q: And the MIC (A. fumigatus; 48 h)?
A: Its MIC is 12.5 µg/mL.

Q: What about the “Activity A.f. (relative activity in relation to heliomycin)” value (Aspergillus fumigatus; fold relative to heliomycin) of the same compound?
A: Its value is 2.

Q: Which results are given for “DKLIGSCVWGAVNYTSNCNAECKRRGYKGGHCGSFLNVNCWCER (disulfide 7-32, 18-40, 22-42 (inferred)) [pEM48]”?
A: MIC (Neurospora crassa): 0.39 µg/mL; MIC (Alternaria brassicola): 12.5 µg/mL; MIC (C. kefyr): 25 µg/mL; MIC (C. krusei): 1.56 µg/mL; MIC (C. tropicalis): 3.125 µg/mL; MIC (C. glabrata): >25 µg/mL; MIC (C. parapsilosis): 0.78 µg/mL; Activity C.a. (relative activity in relation to Ard1) (Candida albicans): 6-12; Activity A.f. (relative activity in relation to Ard1) (Aspergillus fumigatus; fold relative to Ard1): 1-2; MIC (C. albicans): 1.56 µg/mL
